Source: patent EP1220870B1, “METAL-BINDING COMPOUNDS AND USES THEREFOR” (DMI Biosciences, Inc., priority 1999, dated 2001)
No end group written: not given here.

Legend:
Format in all cases: biochemical
[1] = tested on: Superoxide radical; experiment: Superoxide radical production, NBT reduction with copper and ascorbate; details: 37°C, read at 560 nm at 5, 15, 30 and 60 minutes, maximum decreased for the 1:1 complex
Experimental: Superoxide radical production was measured in solutions containing the 1:1 or 2:1 tetrapeptide-copper complexes. The assay combined techniques from the TBA assay and the xanthine oxidase assay. NBT was added to all test tubes in order to quantitate its reduction by superoxide radical. The samples also contained ascorbate and copper and were incubated at 37°C. At 5,15,30 and 60 minutes, the samples were removed from the incubator and read at 560 nm. In the sample containing the 2:1 tetrapeptide-copper complex, NBT reduction increased over time and reached a maximum at 3 0 minutes.

[2] = target: T1, xanthine oxidase (Bos taurus, UniProt P80457); experiment: Uric acid production at 295 nm (check for interference with xanthine oxidase activity); details: concentration of 600 nM; data not shown
T1 construct: purchased Sigma Chemical Co
Experimental: Athar et al., Biochem. Mol. Biol. Int., 39(4):813-821 (1996); Ciuffi et al., Pharmacol Res., 38(4):279-287 (1998). This assay is similar to the SOD assay, except that NBT is not present. Instead, uric acid is assayed at 295 nm every 60 seconds for 5 minutes. […] Since superoxide is converted to hydrogen peroxide by the complex, this could help to explain why it is not effective at preventing hydroxyl radical production.

[3] = target: Superoxide radical; experiment: Superoxide dismutase (SOD) activity, xanthine oxidase/NBT assay; details: for SOD activity (inhibition of NBT reduction): xanthine oxidase assay, pH 10.2, 1.2 µM EDTA
Experimental: The SOD activity of copper complexes of the tetrapeptide L-Asp L-Ala L-His L-Lys [SEQ ID NO:1] was assayed. Superoxide radicals were produced using the xanthine oxidase assay of Beauchamp and Fridovich, Anal. Biochem., 44:276-287 (1971). Xanthine oxidase converts xanthine into uric acid, with oxygen acting as an electron acceptor. This causes superoxide radical to be produced. Superoxide radical is able to reduce nitro blue tetrazolium (NBT). Reduced NBT has a λmax of 560 nm. It is known that copper inhibits xanthine oxidase activity (Konstantinova et al., Free Rad. Res. Comms., 12-13:215-220 (1991)), so all experiments containing copper also contained ethylenediaminetetracetic acid (EDTA), a known copper chelator.
To perform the assay for SOD activity, 0.1 mM xanthine (Sigma Chemical Co.), 25 µM NBT (Sigma Chemical Co.), 50 mM sodium carbonate, and 1.2 µM EDTA (Sigma Chemical Co.), were mixed in a cuvette (all final concentrations, final pH 10.2). The reaction was started by the addition of various amounts of a tetrapeptide-copper complex (tetrapeptide/copper ratios of 1:1 and 2:1) and 20 nM xanthine oxidase (Sigma Chemical Co.). The tetrapeptide-copper complex was prepared by mixing the tetrapeptide and copper (as CuCl2) and allowing the mixture to incubate for 15 minutes at room temperature immediately before addition to the cuvette. The samples were read at time 0 and every 60 seconds for five minutes at 560 nm.

[4] = tested on: hydroxyl radicals; experiment: Inhibition of hydroxyl radical production, Cu(II)/ascorbic acid deoxyribose TBA assay (Example 10); details: compound/copper 2:1; for % Inhibition: percent decrease in absorbance compared to buffer alone
Experimental: The ability of the compounds listed above to inhibit the generation of hydroxyl radicals was tested as described in Gutteridge and Wilkins, Biochim. Biophys. Acta, 759:38-41 (1983). Briefly, Cu(II) and ascorbic acid were mixed causing the generation of hydroxyl radicals. Then, deoxyribose was added, and the hydroxyl radicals, if present, attacked the deoxyribose to produce fragments. […]. Thus, absorbance at 532 nm is a measure of the damage to deoxyribose and, therefore, of hydroxyl radical formation.
To perform the assay, CuCl2 in buffer (20 mM KH2PO4 buffer, pH 7.4) and either one of the test compounds in buffer or buffer alone were added to test tubes (final concentration of CuCl2 was 10µM). The test tubes were incubated for 15 minutes at room temperature. Then, 0.5 mM ascorbic acid in buffer and 1.9 mM 2-deoxy-D-ribose in buffer were added to each test tube, and the test tubes were incubated for 1 hour at 37°C. Finally, 1 ml of 1% (w/v) TBA in 50 mM NaOH and 1 ml of concentrated acetic acid were added to each test tube, and the test tubes were incubated in boiling water for 15 minutes. After the test tubes had cooled for 15 minutes, the absorbance at 532 nm was read.

T1 sequence (P80457 whole entry): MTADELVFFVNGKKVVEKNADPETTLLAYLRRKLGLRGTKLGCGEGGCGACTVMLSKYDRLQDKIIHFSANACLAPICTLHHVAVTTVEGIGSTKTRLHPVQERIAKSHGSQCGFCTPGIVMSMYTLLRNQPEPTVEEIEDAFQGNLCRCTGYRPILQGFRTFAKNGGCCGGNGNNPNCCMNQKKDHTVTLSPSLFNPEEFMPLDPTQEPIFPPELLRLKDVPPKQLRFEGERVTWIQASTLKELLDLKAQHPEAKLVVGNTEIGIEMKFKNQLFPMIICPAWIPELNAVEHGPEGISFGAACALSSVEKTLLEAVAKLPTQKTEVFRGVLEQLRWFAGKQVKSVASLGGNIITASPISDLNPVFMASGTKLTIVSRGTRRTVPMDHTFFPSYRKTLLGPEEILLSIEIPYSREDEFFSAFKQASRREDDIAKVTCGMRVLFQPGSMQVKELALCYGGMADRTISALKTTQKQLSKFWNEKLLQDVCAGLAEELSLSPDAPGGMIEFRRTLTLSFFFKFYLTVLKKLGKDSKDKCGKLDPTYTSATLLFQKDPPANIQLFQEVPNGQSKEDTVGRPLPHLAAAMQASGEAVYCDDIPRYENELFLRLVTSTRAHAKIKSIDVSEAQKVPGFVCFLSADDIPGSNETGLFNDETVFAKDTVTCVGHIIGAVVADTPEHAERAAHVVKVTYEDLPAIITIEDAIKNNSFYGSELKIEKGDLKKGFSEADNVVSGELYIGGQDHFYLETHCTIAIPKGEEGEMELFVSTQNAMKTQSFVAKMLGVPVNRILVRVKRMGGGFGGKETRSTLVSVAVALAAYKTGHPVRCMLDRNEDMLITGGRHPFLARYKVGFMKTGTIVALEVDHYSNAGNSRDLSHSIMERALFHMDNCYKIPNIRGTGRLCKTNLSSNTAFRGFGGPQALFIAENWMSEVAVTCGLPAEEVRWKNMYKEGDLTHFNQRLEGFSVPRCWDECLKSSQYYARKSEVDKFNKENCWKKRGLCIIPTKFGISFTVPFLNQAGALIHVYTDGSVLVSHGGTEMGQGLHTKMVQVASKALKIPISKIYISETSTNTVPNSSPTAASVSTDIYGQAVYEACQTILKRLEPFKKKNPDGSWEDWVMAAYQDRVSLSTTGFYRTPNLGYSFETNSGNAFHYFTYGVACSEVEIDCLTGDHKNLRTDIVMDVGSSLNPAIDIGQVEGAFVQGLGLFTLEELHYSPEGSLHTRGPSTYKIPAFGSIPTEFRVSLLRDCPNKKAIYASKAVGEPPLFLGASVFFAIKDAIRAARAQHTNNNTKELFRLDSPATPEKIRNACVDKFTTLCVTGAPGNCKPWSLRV

inhibition of uric acid production [2] | times less effective than SOD itself, based on IC50 values ([3]; tetrapeptide/copper ratio 1:1, IC50 = amount that gives 50% inhibition) | SOD activity (inhibition of NBT reduction) [3] | SOD activity (inhibition of NBT reduction) ([3]; listed as complex of the tetrapeptide with copper at a ratio of 1:1) | Compound | time at which NBT reduction reached a maximum [1] | % Inhibition [4] | % Inhibition ([4]; listed as Histindine) | Absorbance at 532 nm ([4]; second absorbance column (copper only 0.954))
11% | about 500 times | true SOD activity | have SOD activity | 1:1 tetrapeptide-copper complex: complex of L-Asp L-Ala L-His L-Lys and copper (as CuCl2), tetrapeptide/copper ratio 1:1 (DAHK; also: copper complex, peptide:Cu 1:1 (as CuCl2); UniProt P02768 25-28, looked up, fragment) | 60 min | – | – | –
– | – | no SOD activity | – | 2:1 tetrapeptide-copper complex: complex of L-Asp L-Ala L-His L-Lys and copper (as CuCl2), tetrapeptide/copper ratio 2:1 (DAHK; also: copper complex, peptide:Cu 2:1 (as CuCl2); UniProt P02768 25-28, looked up, fragment) | – | – | – | –
– | – | – | – | N[C@@H](Cc1c[nH]cn1)C(=O)O [Histidine, histidine] | – | about 20% | 20.3% | 0.760
